Experimental data as given in patent US6825209B2, “Compounds having unique CB1 receptor binding selectivity and methods for their production and use” (Research Triangle Institute, priority 2002, dated 2004).
Like-named read-outs stand apart in the source and are kept apart here.

How the values were obtained:
Assay type in all cases: binding
human CB1 receptor = biological target: T1, human CB1 receptor (Homo sapiens, UniProt P21554); assay: Radioligand displacement in human CB1 receptor-transfected cells (HEK-293)
T1 construct: expressed in transfected cells; host or cells: HEK-293
In short: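 Radioligand displacement was run on HEK-293 cells expressing human CB1, with incubation and separation as for rat brain membranes. IC50 values came from one- or two-site nonlinear regression and were converted to Ki by Cheng-Prusoff.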

human CB2 receptor = biological target: T2, human CB2 receptor (Homo sapiens, UniProt P34972); assay: Displacement of 3H-CP55,940 in human CB2 receptor-transfected cells (CHO-K1); conditions: radioligand 3H-CP55940, Tables 6 and 7
T2 construct: expressed in transfected cells; host or cells: CHO-K1
In short: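 CB2 receptor expressed in CHO-K1 cells; [3H]-CP55,940 displacement with incubation and separation as for rat brain membranes.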

CB1 receptor = biological target: T3, CB1 receptor (Rattus norvegicus, UniProt P20272); assay: Radioligand displacement in whole rat brain (CB1) membrane preparations; conditions: Tables 1 and 2
T3 construct: Whole rat brains or dissected regions from live CD rats; tissue Charles River or Pel-Freez Biologicals; host or cells: whole rat brain (CD rats), P2 membrane
In short: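 Washed P2 membranes from whole rat brain (ca. 0.2 mg/mL) in 50 mM Tris.HCl, 1 mM EDTA, 3 mM MgCl2, pH 7.4 were incubated with radioligand and compound for 1 h at 30 °C, then filtered. IC50 values came from one- or two-site nonlinear fits and were converted to Ki by Cheng-Prusoff. Duplicates were run across 3–6 experiments.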

[1] = displacement of 3H-CP55940, human CB1 transfected cells, radioligand 3H-CP55940, Table 3
[2] = displacement of 3H-SR141716A, human CB1 transfected cells, radioligand 3H-SR141716A, Table 3
[3] = displacement of 3H-WIN55212-2, human CB1 transfected cells, radioligand 3H-WIN55212-2, Table 3
[4] = human CB1 transfected cells, radioligand 3H-CP55940, Table 3
[5] = human CB1 transfected cells, radioligand 3H-SR141716A, Table 3
[6] = human CB1 transfected cells, radioligand 3H-WIN55212-2, Table 3
[7] = read-out: Ki, displacement of 3H-CP55940, human CB2 transfected cells
[8] = Ki, displacement of 3H-WIN55212-2, whole rat brain membranes, radioligand 3H-WIN55212-2
[9] = read-out: Ki, displacement of 3H-CP55940, whole rat brain membranes, radioligand 3H-CP55940
[10] = read-out: Ki, displacement of 3H-SR141716A, whole rat brain membranes, radioligand 3H-SR141716A
[11] = whole rat brain membranes, radioligand 3H-CP55940
[12] = whole rat brain membranes, radioligand 3H-SR141716A
[13] = whole rat brain membranes, radioligand 3H-WIN55212-2

T3 sequence (P20272 whole entry): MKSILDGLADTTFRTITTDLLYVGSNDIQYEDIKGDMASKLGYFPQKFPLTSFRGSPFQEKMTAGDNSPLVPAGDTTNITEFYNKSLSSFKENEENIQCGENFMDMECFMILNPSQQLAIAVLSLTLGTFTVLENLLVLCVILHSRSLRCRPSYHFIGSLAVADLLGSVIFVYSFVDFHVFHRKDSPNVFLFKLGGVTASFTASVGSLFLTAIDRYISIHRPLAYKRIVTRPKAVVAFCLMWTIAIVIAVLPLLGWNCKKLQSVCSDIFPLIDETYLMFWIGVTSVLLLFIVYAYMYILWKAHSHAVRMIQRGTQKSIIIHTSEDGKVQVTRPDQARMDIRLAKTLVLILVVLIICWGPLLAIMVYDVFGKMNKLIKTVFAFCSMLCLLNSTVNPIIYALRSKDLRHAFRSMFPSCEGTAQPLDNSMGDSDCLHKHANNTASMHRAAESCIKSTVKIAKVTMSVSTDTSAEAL
T2 sequence (P34972 whole entry): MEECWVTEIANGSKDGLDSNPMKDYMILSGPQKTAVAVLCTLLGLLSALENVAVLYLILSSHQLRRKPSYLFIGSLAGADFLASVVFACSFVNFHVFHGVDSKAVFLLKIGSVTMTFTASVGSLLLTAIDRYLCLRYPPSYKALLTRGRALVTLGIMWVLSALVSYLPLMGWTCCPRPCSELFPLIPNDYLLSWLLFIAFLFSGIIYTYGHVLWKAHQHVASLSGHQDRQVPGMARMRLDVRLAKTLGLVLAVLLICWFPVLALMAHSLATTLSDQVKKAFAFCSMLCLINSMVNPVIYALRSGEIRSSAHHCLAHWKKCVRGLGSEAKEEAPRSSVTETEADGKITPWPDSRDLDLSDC
T1 sequence (P21554 whole entry): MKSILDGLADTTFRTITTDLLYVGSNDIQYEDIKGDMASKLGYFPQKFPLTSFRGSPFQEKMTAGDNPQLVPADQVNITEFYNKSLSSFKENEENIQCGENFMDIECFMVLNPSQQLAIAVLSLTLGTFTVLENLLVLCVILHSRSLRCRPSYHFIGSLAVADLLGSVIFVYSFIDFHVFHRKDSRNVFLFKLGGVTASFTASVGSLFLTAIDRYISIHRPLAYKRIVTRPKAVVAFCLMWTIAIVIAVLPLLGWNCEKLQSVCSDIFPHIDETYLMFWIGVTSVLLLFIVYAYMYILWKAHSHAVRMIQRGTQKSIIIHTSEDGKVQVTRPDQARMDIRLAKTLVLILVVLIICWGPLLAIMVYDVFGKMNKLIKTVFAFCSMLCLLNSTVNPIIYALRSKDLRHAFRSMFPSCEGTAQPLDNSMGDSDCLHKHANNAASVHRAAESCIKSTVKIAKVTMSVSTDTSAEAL

Structure (SMILES) | Ki (human CB1 receptor; [1]) | Ki (human CB1 receptor; [2]) | Ki (human CB1 receptor; [3]) | Max. Disp. %, 3H-CP55940 (human CB1 receptor; [4]) | Max. Disp. %, 3H-SR141716A (human CB1 receptor; [5]) | Max. Disp. %, 3H-WIN55212-2 (human CB1 receptor; [6]) | Max. Disp. %, 3H-CP55940 (human CB2 receptor; human CB2 transfected cells) | Ki (human CB2 receptor; [7]) | Ki (CB1 receptor; [8]) | Ki (CB1 receptor; [9]) | Ki (CB1 receptor; [10]) | Max. Disp. %, 3H-CP55940 (CB1 receptor; [11]) | Max. Disp. %, 3H-SR141716A (CB1 receptor; [12]) | Max. Disp. %, 3H-WIN55212-2 (CB1 receptor; [13]) | also measured
CCCCCCCNC(=O)c1nn(-c2ccc(Cl)cc2Cl)c(-c2ccc(Cl)cc2)c1C [MF9725-133-25] | – | – | – | – | – | – | 47.8% | – | 28.8 nM | – | – | 81.7% | 97.9% | 69.6% | Max. Disp. %, 3H-CP55940 (human CB1 receptor): 85.3%; Max. Disp. %, 3H-SR141716A (human CB1 receptor): 67.9%; Max. Disp. %, 3H-WIN55212-2 (human CB1 receptor): 53.4%; Ki (human CB1 receptor; displacement of 3H-CP55940): 29.1 nM; Ki (human CB1 receptor; displacement of 3H-SR141716A): 9.3 nM; Ki (human CB1 receptor; displacement of 3H-WIN55212-2): 393 nM; Ki (human CB2 receptor; Ki, displacement of 3H-CP55940, human CB2 transfected cells): 4030 nM; Ki (CB1 receptor; Ki, displacement of 3H-CP55940, whole rat brain membranes, radioligand 3H-CP55940): 46.2 nM; Ki (CB1 receptor; Ki, displacement of 3H-SR141716A, whole rat brain membranes, radioligand 3H-SR141716A): 19 nM
Cc1c(C(=O)NC(C)C)nn(-c2ccc(Cl)cc2Cl)c1-c1ccc(Cl)cc1 [MF9725-65-11] | 91 nM | 14.4 nM | 692 nM | 85.4% | 100% | 93.6% | 68.3% | 1740 nM | 36.1 nM | 29.4 nM | 12.9 nM | 88.3% | 100% | 90.6% | –
Cc1c(C(=O)NC2CCCCC2)nn(-c2ccc(Cl)cc2Cl)c1-c1ccc(Cl)cc1 [MF9725-66-11] | 7.06 nM | 1.02 nM | 5.36 nM | 92.3% | 99.9% | 96.8% | 84.5% | 228 nM | 2.23 nM | 2.46 nM | 1.07 nM | 96.1% | 100% | 92.6% | –
Cc1c(C(=O)NN2CCOCC2)nn(-c2ccc(Cl)cc2Cl)c1-c1ccc(Cl)cc1 [MF9725-33D] | – | – | – | – | – | – | 54.5% | 2400 nM | – | 22.9 nM | 21 nM | 96.2% | 100% | – | –

Now from value to compound, other results behind:

Ki (human CB1 receptor; [1]) | Ki (human CB1 receptor; [2]) | Ki (human CB1 receptor; [3]) | Max. Disp. %, 3H-CP55940 (human CB1 receptor; [4]) | Max. Disp. %, 3H-SR141716A (human CB1 receptor; [5]) | Max. Disp. %, 3H-WIN55212-2 (human CB1 receptor; [6]) | Max. Disp. %, 3H-CP55940 (human CB2 receptor; human CB2 transfected cells) | Ki (human CB2 receptor; [7]) | Ki (CB1 receptor; [8]) | Ki (CB1 receptor; [9]) | Ki (CB1 receptor; [10]) | Max. Disp. %, 3H-CP55940 (CB1 receptor; [11]) | Max. Disp. %, 3H-SR141716A (CB1 receptor; [12]) | Max. Disp. %, 3H-WIN55212-2 (CB1 receptor; [13]) | Structure (SMILES) | also measured
93.6 nM | 14.3 nM | 127 nM | 70.1% | 99.5% | 100% | 80.0% | 704 nM | 46.4 nM | 11.5 nM | 9.22 nM | 96.7% | 100% | 90.9% | Cc1c(C(=O)NCC(C)C)nn(-c2ccc(Cl)cc2Cl)c1-c1ccc(Cl)cc1 [MF9725-68-10] | –
124 nM | 23.5 nM | 85.4 nM | 85.6% | 75.4% | 52.7% | 66.9% | 6870 nM | 16.6 nM | 18.2 nM | 10.7 nM | 87.3% | 98.6% | 77.9% | CCCCCCNC(=O)c1nn(-c2ccc(Cl)cc2Cl)c(-c2ccc(Cl)cc2)c1C [MF9725-132-25] | –
28 nM | 4.79 nM | 29.8 nM | 90.2% | 97.4% | 93.2% | 75.6% | 1600 nM | 32.8 nM | 13.4 nM | 12.8 nM | 91.9% | 100% | 90.8% | CCCCNC(=O)c1nn(-c2ccc(Cl)cc2Cl)c(-c2ccc(Cl)cc2)c1C [MF9725-64-17] | –
